Laboratory results reported in article PMC7828518 (2021).

How the values were obtained:
[1] = test system: F21T (DNA, G4) GGGTTAGGGTTAGGGTTAGGG; test: FRET DNA melting; settings: K+ (10 mM KCl), Li+ (90 mM LiCl); 10 mM lithium cacodylate pH 7.3; 5 μM compound, 0.2 μM DNA
[2] = test system: F10T (DNA, hairpin, Sp18 linker joins 3' end of first TATAGCTATA to 5' end of second (one molecule)) TATAGCTATA/TATAGCTATA; test: FRET DNA melting; settings: Li+ (100 mM LiCl) per methods; Figure 3 legend: 10 mM KCl, 90 mM LiCl; 10 mM lithium cacodylate pH 7.3; up to 10 μM compound, 0.2 μM DNA
[3] = test system: Tel22 (DNA, G4) AGGGTTAGGGTTAGGGTTAGGG; test: circular dichroism titration; settings: K+ (10 mM KCl), Li+ (90 mM LiCl); 10 mM lithium cacodylate pH 7.3, 25 °C; 4 μM DNA, ratios 1:1 to 1:5
[4] = test system: Tel22 (DNA, G4) AGGGTTAGGGTTAGGGTTAGGG; test: equilibrium dialysis (noncompetition); settings: K+ (100 mM KCl, 10 mM potassium phosphate); pH 7.2, 22 °C; apparent; per tetrad (75 μM monomeric units); 2 μM compound; per base
[5] = test system: ds17 (DNA, duplex) GGGTTACTACGAACTGG/CCAGTTCGTAGTAACCC; test: equilibrium dialysis (noncompetition); settings: K+ (100 mM KCl, 10 mM potassium phosphate), pH 7.2, 22 °C, apparent, per base pair (75 μM monomeric units), 2 μM compound

Question: Which “∆Tm” value [1] does the source give for `N=C(N)N/N=C/c1ccc2ccc3ccc(/C=N/NC(=N)N)nc3c2n1` here?
Answer: The value was 7 ± 1 °C.

Question: What about the “∆Tm” value [2] of the same molecule?
Answer: The value was ~ 0 °C.

Question: And the binding [3]?
Answer: Its binding is “yes”.

Question: What about the Kapp [4] of the same molecule?
Answer: The Kapp was 2.3 ± 0.5 × 10^6 M^-1.

Question: What about the Kapp [5] of the same molecule?
Answer: Its Kapp is 0.029 ± 0.004 × 10^6 M^-1.
